Among the data in patent US10995091B2 (Proximagen, LLC, priority 2010, dated 2021) are Ki values, retold here.

Structures can show the parent of a compound that is named as a salt.

The target in this assay is T1, Human CXCR4 transfected HEK293 cells (Homo sapiens, UniProt P61073).
T1 construct: expressed in transfected cells; host or cells: HEK293
T1 sequence (P61073 whole entry): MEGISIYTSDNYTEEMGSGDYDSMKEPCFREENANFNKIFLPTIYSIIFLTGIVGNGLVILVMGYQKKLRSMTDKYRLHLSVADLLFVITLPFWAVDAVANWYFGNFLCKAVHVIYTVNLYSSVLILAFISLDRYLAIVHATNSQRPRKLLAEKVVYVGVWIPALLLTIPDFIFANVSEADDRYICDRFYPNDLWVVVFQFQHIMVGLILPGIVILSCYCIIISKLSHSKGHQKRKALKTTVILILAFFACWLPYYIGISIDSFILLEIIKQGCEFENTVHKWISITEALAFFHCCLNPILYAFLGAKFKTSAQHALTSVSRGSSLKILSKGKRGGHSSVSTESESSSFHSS
The assay can be described thus: CXCR4 functional calcium assay (calcium flux FLIPR, antagonism of SDF1 response). It counts as cell-based. As to conditions: CXCR4 functional activity, antagonism of SDF1 (EC50 concentration), read-out: CXCR4 fKi. On the procedure: The functional activity of test compounds was routinely tested by measuring the ability of compounds to antagonize CXCR4 activity in a dose dependent manner, using a calcium flux Fluorescent Imaging Plate Reader FLIPR assay.
Human CXCR4 transfected HEK293 cells were cultured in Dulbecco's modified Eagles medium containing 4.5 g/L glucose, L-glutamine, pyruvate, 50 µg/mL Geneticin and 250 µg/mL hygromycin B and maintained at 37° C. in a humidified, 5% CO2 controlled atmosphere. Subcultivations were performed every 2-3 d.
At confluence the cells were lifted using Ca^2+ and Mg^2+ free PBS/0.02% (w/v) EDTA, spun at 1000 rpm for 3 min and resuspended at 2.5×10^5 cells/mL. Cells were plated into a 384 well, poly-d-lysine coated, black with clear bottomed plate (Becton Dickinson) at 7500 cells/well. The plates were incubated overnight at 37° C. under 5% CO2. On the day of the experiment the cells were washed with incubation Buffer (HBSS containing 2.5 mM probenecid, 0.1% w/v BSA and 10 mM HEPES, pH 7.4 at 37° C.). After washing, the cells were loaded with Fluo-4 AM dye (Molecular probes) at 2 µM containing 0.48 µg/mL pluronic acid for 60 min at 37° C. under 5% CO2. After thorough washing with incubation buffer the cells were preincubated for 10 min at 37° C. before use.
A combined agonist/antagonist protocol was used to measure changes in intracellular calcium concentration. Compound (antagonist) was added to the cell plate using a Fluorometric Imaging Plate Reader (FLIPR) (Molecular Devices, Sunnyvale, Calif., USA). Basal fluorescence was recorded every second for 10 seconds prior to compound addition (10 μl) and fluorescence recorded every second for 1 min then every 6 seconds for a further 1 min. SDF1[…] (EC50 concentration) was then added using the FLIPR and fluorescence recorded as described above. Curve-fitting and parameter estimation were carried out using GraphPad Prism 4.0 (GraphPad Software Inc., San Diego, Calif.).
For `CC(C)N1CCC(N2CCCN(c3cccc(-c4cc5ncccc5[nH]4)n3)CC2)CC1` [Example 96, 1-[1-(Propan-2-yl)piperidin-4-yl]-4-(6-{1H-pyrrolo[3,2-b]pyridine-2-yl}pyridine-2-yl)-1,4-diazepane], the Ki fell in the range of 0.02 to 0.1 µM.
In the case of `CC(C)N1CCC(N2CCCN(c3cccc(-c4noc(-c5ccncc5)n4)n3)CC2)CC1` [Example 167, 1-[1-(Propan-2-yl)piperidin-4-yl]-4-{6-[5-(pyridine-4-yl)-1,2,4-oxadiazol-3-yl]pyridine-2-yl}-1,4-diazepane tetrahydrochloride] it was 0.02 to 0.1 µM.
As to `CC(C)N1CCC(N2CCCN(c3cccc(-c4nc5cc(F)c(F)cc5[nH]4)n3)CC2)CC1` [Example 145, 5,6-Difluoro-2-(6-{4-[1-(propan-2-yl)piperidin-4-yl]-1,4-diazepan-1-yl}pyridine-2-yl)-1,3-benzodiazole], the Ki is less than 0.02 µM.
In the case of `CC(C)N1CCC(N2CCCN(c3cccc(-c4noc(-c5cccnc5)n4)n3)CC2)CC1` [Example 166, 1-[1-(Propan-2-yl)piperidin-4-yl]-4-{6-[5-(pyridine-3-yl)-1,2,4-oxadiazol-3-yl]pyridine-2-yl}-1,4-diazepane tetrahydrochloride] it was 0.1 to 0.5 µM; in that of `CC(C)N1CCC(N2CCCN(c3cccc(-c4noc(C5CCCC5)n4)n3)CC2)CC1` [Example 162, 1-[6-(5-Cyclopentyl-1,2,4-oxadiazol-3-yl)pyridine-2-yl]-4-[1-(propan-2-yl)piperidin-4-yl]-1,4-diazepane], 0.1 to 0.5 µM; in that of `CC(C)N1CCC(N2CCCN(c3cccc(C(=O)NCC(F)(F)F)n3)CC2)CC1` [Example 10, 6-{4-[1-(Propan-2-yl)piperidin-4-yl]-1,4-diazepan-1-yl}-N-(2,2,2-trifluoroethyl)pyridine-2-carboxamide], 0.1 to 0.5 µM.
The figure for `CC(C)N1CCCC(N2CCC(Oc3cccc(C(=O)Nc4ccncc4)n3)CC2)CC1` (stereo not drawn) [Example 221, 6-({1-[1-(Propan-2-yl)azepan-4-yl]piperidin-4-yl}oxy)-N-(pyridin-4-yl)pyridine-2-carboxamide] is 0.1 to 0.5 µM; for `COCCNC(=O)c1cccc(N2CCCN(C3CCN(Cc4ccccc4Cl)CC3)CC2)n1` [Example 50, 6-(4-{1-[(2-Chlorophenyl)methyl]piperidin-4-yl}-1,4-diazepan-1-yl)-N-(2-methoxyethyl)pyridine-2-carboxamide] it is 0.1 to 0.5 µM.
In the case of `Cc1nc(-c2cccc(N3CCN(C4CCCN(C(C)C)CC4)CC3)n2)[nH]c1C1CC1` (stereo not drawn) [Example 243, 4-{4-[6-(5-Cyclopropyl-4-methyl-1H-imidazol-2-yl)pyridin-2-yl]piperazin-1-yl}-1-(propan-2-yl)azepane] it was 0.1 to 0.5 µM; in that of `CC(C)N1CCC(N2CCCN(c3cccc(C(=O)NCc4cnco4)n3)CC2)CC1` [Example 44, N-(1,3-Oxazol-5-ylmethyl)-6-{4-[1-(propan-2-yl)piperidin-4-yl]-1,4-diazepan-1-yl}pyridine-2-carboxamide], 0.02 to 0.1 µM.
Take `CCCc1nc(-c2cccc(N3CCCN(C4CCN([C@H](C)CC)CC4)CC3)n2)no1` [Example 154, 1-{1-[(2R)-Butan-2-yl]piperidin-4-yl}-4-[6-(5-propyl-1,2,4-oxadiazol-3-yl)pyridin-2-yl]-1,4-diazepane]: the Ki was in the range of 0.1 to 0.5 µM.
The figure for `CC(C)N1CCC(N2CCCN(c3cccc(-c4noc(CC(C)(C)C)n4)n3)CC2)CC1` [Example 160, 1-{6-[5-(2,2-Dimethylpropyl)-1,2,4-oxadiazol-3-yl]pyridine-2-yl}-4-[1-(propan-2-yl)piperidin-4-yl]-1,4-diazepane] is 0.1 to 0.5 µM.
`[2H]C1([2H])CCN(c2cccc(C(=O)Nc3ccncc3)n2)CCN1C1CCN([C@H](C)CC)CC1` [Example 188, 6-(4-{1-[(2R)-Butan-2-yl]piperidin-4-yl}-5,5-dihydrogenio-1,4-diazepan-1-yl)-N-(pyridin-4-yl)pyridine-2-carboxamide]: the Ki was less than 0.02 µM.
In the case of `[2H]C1([2H])CCN(C2CCN([C@@H](C)C(F)(F)F)CC2)CCN1c1cccc(C(=O)Nc2ccncc2)n1` [Example 178, 6-(7,7-Dihydrogenio-4-{1-[(2S)-1,1,1-trifluoropropan-2-yl]piperidin-4-yl}-1,4-diazepan-1-yl)-N-(pyridine-4-yl)pyridine-2-carboxamide], the Ki is 0.02 to 0.1 µM.
Take `Cc1nc(-c2cccc(NCCNC3CCCN(C4CCCC4)C3)n2)[nH]c1C1CC1` (stereo not drawn) [Example 231, N-{2-[(1-Cyclopentylpiperidin-3-yl)amino]ethyl}-6-(5-cyclopropyl-4-methyl-1H-imidazol-2-yl)pyridin-2-amine]: the Ki was in the range of 0.1 to 0.5 µM.
On to `Cc1ccccc1CN1CCCC(N2CCN(c3cccc(C(=O)Nc4ccncc4)n3)CC2)CC1` (stereo not drawn) [Example 240, 6-(4-{1-[(2-Methylphenyl)methyl]azepan-4-yl}piperazin-1-yl)-N-(pyridin-4-yl)pyridine-2-carboxamide], for which the Ki fell in the range of 0.02 to 0.1 µM.
In the case of `CC(C)N1CCC(N2CCCN(c3cccc(C(=O)NC4CC4)n3)CC2)CC1` [Example 11, N-Cyclopropyl-6-{4-[1-(propan-2-yl)piperidin-4-yl]-1,4-diazepan-1-yl}pyridine-2-carboxamide], the Ki is 0.1 to 0.5 µM.
As to `[2H]C1([2H])CCN(C2CCN(C(C)C)CC2F)CCN1c1cccc(C(=O)Nc2ccncc2)n1` (stereo not drawn) [Example 211, 6-{4-[3-Fluoro-1-(propan-2-yl)piperidin-4-yl]-7,7-dihydrogenio-1,4-diazepan-1-yl}-N-(pyridin-4-yl)pyridine-2-carboxamide], the Ki fell in the range of 0.02 to 0.1 µM.
Consider `CC(C)N1CCC(N2CCCN(c3cccc(C(=O)NCCn4ccnc4)n3)CC2)CC1` [Example 45, N-[2-(1H-Imidazol-1-yl)ethyl]-6-{4-[1-(propan-2-yl)piperidin-4-yl]-1,4-diazepan-1-yl}pyridine-2-carboxamide], for which the Ki is 0.02 to 0.1 µM.
The figure for `Cc1nc(-c2cccc(N3CCCN(C4CCN(C(C)C)CC4)CC3)n2)[nH]c1C` [Example 118, 1-[6-(4,5-Dimethyl-1H-imidazol-2-yl)pyridine-2-yl]-4-[1-(propan-2-yl)piperidin-4-yl]-1,4-diazepane] is 0.02 to 0.1 µM; for `CCN1CCC(N2CCCN(c3cccc(C(=O)NCC4CC4)n3)CC2)CC1` [Example 60, N-(Cyclopropylmethyl)-6-[4-(1-ethylpiperidin-4-yl)-1,4-diazepan-1-yl]pyridine-2-carboxamide] it is 0.5 to 1 µM; for `O=C(Nc1ccncc1)c1cccc(N2CCCN(Cc3ccc(F)cc3Cl)CC2)n1` [Example 251, 6-{4-[(2-Chloro-4-fluorophenyl)methyl]-1,4-diazepan-1-yl}-N-(pyridin-4-yl)pyridine-2-carboxamide] it is 0.1 to 0.5 µM.
In the case of `CC1CN(c2cccc(C(=O)Nc3ccncc3)n2)CCN(C2CCN(C(C)C)CC2)C1` (stereo not drawn) [Example 182, 6-{6-Methyl-4-[1-(propan-2-yl)piperidin-4-yl]-1,4-diazepan-1-yl}-N-(pyridin-4-yl)pyridine-2-carboxamide], the Ki was in the range of 0.02 to 0.1 µM.
Turning to `CC(C)c1cnc(-c2cccc(N3CCCN(C4CCN(C(C)C)CC4)CC3)n2)[nH]1` [Example 110, 1-{6-[4-(Propan-2-yl)-1H-imidazol-2-yl]pyridine-2-yl}-4-[1-(propan-2-yl)piperidin-4-yl]-1,4-diazepane], the Ki fell in the range of 0.02 to 0.1 µM.
